# “Also recorded” adds a separate entry of the source. Ends that are not written are not given here.
# Key:
# C57BL/6 mice [1] = assay: Quantitation of luciferase expression in tissues; assay type: in vivo, mouse; conditions: 0.1 mM peptides + 5E+10 vg AAV8/luc
# Method: Quantitation of luciferase expression in tissues. Animals utilized for imaging studies were sacrificed after one-week post imaging work, and the tissues of the heart, liver, spleen, skeletal muscle and brain were collected, and were minced and homogenized in passive lysis buffer. Then the lysates were centrifuged at 10,000 rpm for 5 minutes to remove cellular debris. Supernatant was transferred to 96-well plates for luciferase activity analysis as described above. Total protein concentration in tissue lysates was measured using the Bradford assay (Bio-Rad Laboratories, Philadelphia, PA).
# C57BL/6 mice [2] = assay: Measurement of AAV genome copy number in tissue; assay type: in vivo, mouse; conditions: 0.1 mM peptides + 5E+10 vg AAV8/luc; vs AAV8 only
# Method: Measurement of AAV genome copy number in tissue. Total gDNA from different minced tissues was isolated with the DNeasy blood & tissue kit (Qiagen, USA). Luciferase gene was measured by qPCR assay. Mouse-lamin gene served as an internal control.
# [3] = test system: HEK293 cells or Huh7 cells; assay: In vitro transduction assay, AAV8/luc with peptides; assay type: cell-based, human; conditions: 10000 vg AAV8/luc incubated with peptides 2 h at 4° C.; both cell lines; 48 h; vs AAV8 only
# Method: In vitro transduction assay. At least 4-5 h prior to AAV transduction, cells were seeded in 48-well plates with a density of 1E+05 cells each well. Cells were infected with 1E+04 vector genomes (vg) of AAV8/luc virus per cell and harvested after 48 h. Luciferase activity was measured following manufacturer's instruction (Promega, Madison, WI).
# The complex of AAV8 and peptides influences AAV8 transduction in vitro and in vivo. To identify the potential and functional peptides that enhanced AAV8 transduction, we screened several reported peptides as shown in Table 5 and Table 6. First, we tested the cytotoxicity of peptides at different concentrations on cells. […] After that, we performed the transduction assay in vitro. We incubated the 10000 vg AAV8/luc and peptides for 2 h at 4° C., and then applied the mixture to HEK293 cells or Huh7 cells. After 48 h, the cell lysate was collected for luciferase analysis.
# C57BL/6 mice [4] = assay: In vivo luciferase imaging after retro-orbital injection of AAV8/luc with peptides; parameters: species or system mouse; conditions: 0.1 mM peptides + 5E+10 vg AAV8/luc, retro-orbital vein, 7th day
# Method: Animal study. […] Mice were administered with AAV8/Luc incubated with peptides via retro-orbital injection. Luciferase expression was imaged at the indicated time points using a Xenogen IVIS Lumina (Caliper Lifesciences, Waltham, MA) following intraperitoneal injection of D-luciferin substrate (Nanolight Pinetop, AZ). Bioluminescent images were analyzed using Living Image (PerkinElmer, Waltham, MA). At various time points after injection, blood was collected from the retro-orbital plexus, and the viral titers were tested by qPCR.
# C57BL mice [5] = assay: Systemic administration of AAV9/PB5-3 complex, imaging and genome copy number; assay type: in vivo, mouse
# Method: 1×10^10 particles of AAV9/luc vectors were incubated with PB5-3 for 2 hr at 4° C. The complex was injected into C57BL mice via the retro-orbital vein. At indicated time points, mouse imaging was performed. (FIG. 16A) representative imaging. (FIG. 16B) luciferase expression. (FIG. 16C) AAV genome copy number. The results represented the average and standard derivation from five mice.
# PB5-3 peptide enhances AAV9 transduction in the brain after systemic administration. To study the effect of PB5-3 peptide on AAV9 transduction in mice, we injected AAV9 vectors pre-incubated with PB5-3 peptide into C57BL mice via the retro-orbital vein. At days 1, 3, 7, and 14 post AAV administration, mouse imaging was taken. […] Transduction in the liver was similar regardless of AAV9 pre-incubation with PB5-3 peptide (FIG. 16B). Consistent to tissue transgene expression, AAV genome copy number in the brain but not in other tissues was higher in mice receiving the complex of AAV9 and PB5-3 (FIG. 16C).
# Huh7 or hCMEC/D3 cells = assay: Transduction of AAV serotypes 2, 6 and 8 with PB5-3 in vitro; assay type: cell-based; conditions: incubated with PB5-3; either cell line
# Method: 1×10^9 particles of AAV/luc vectors from serotype 2 (FIG. 15A), 6 (FIG. 15B), and 8 (FIG. 15C) were incubated with PB5-3 peptide for 2 hr at 4° C. The complex of AAV vector and peptide was applied to Huh7 or hCMEC/D3 cells. Two days later, the lysate from these cells was harvested for luciferase analysis.
# Analysis of enhancement of AAV transduction from other serotypes with PB5-3 peptide in vitro. To further investigate the specific effect of PB5-3 on AAV9, we tested the effect of PB5-3 on AAV transduction from other serotypes. AAV vectors from serotypes 2, 6, and 8 were incubated with PB5-3 and then the mixture was applied to Huh7 or hCMEC/D3 cells. The transduction was detected two days later after AAV infection.
# [6] = test system: BBB hCMEC/D3 endothelial cells; assay: In vitro endothelial cell permeability analysis of AAV9; assay type: cell-based, human; conditions: AAV9 pre-incubated with PB5-3 vs AAV9 with DPBS
# Method: Media in the basal chamber was collected at indicated time points and viral genome copy number was analyzed by qPCR. All treatments were performed in triplicate. *p<0.05 when compared to cells with the AAV9 only.
# PB5-3 peptide enhances AAV9 permeability in vitro. To study whether PB5-3 affects the ability of AAV9 to cross the endothelial cell layer, we performed an in vitro endothelial cell permeability analysis in a well-defined system using BBB hCMEC/D3 endothelial cells. Two groups were designed: an AAV9 vector incubated with DPBS (AAV9 cohort); and an AAV9 vector incubated with PB5-3 (AAV9-PB5-3 cohort). […] These observations indicate that the interaction of AAV9 with the PB5-3 peptide increased the ability of AAV9 to cross the BBB.
# different cell types = conditions: different concentrations, 48 hrs
# Method: 1×10^4 cells were incubated with PB5-3 peptide at different concentrations for 48 hrs. Cell proliferation was analyzed with MTT assay (FIG. 14A). AAV9/luc vectors at a dose of 1×10^9 particles were incubated with PB5-3 peptide for 2 hrs at 4° C., then the mixture was applied to different cells and incubated for 2 days. Luciferase expression from cell lysate was detected (FIG. 14B). For comparison, PB5-3 was added to cells just before infection of AAV9 (FIG. 14C).
# [7] = test system: Huh7, Hela, C2C12 and hCMEC/D3; assay: AAV9/luc transduction in cell lines with PB5-3; assay type: cell-based
# Method: Cell proliferation was analyzed with MTT assay (FIG. 14A). […] Luciferase expression from cell lysate was detected (FIG. 14B).
# PB5-3 peptide specifically enhances AAV9 transduction in cell lines. Next, we examined the effect of PB5-3 on AAV9 transduction in vitro. […] Consistent with previous studies, the direct interaction of peptide and AAV virions is required to enhance AAV9 transduction.
# AAV9 virions = assay: Phage binding to AAV-coated plate
# Method: FIGS. 13A-13B show binding specificity of PB5-3 peptide to AAV9. After coating with 1×10^10 particles of AAV9, different phages at a dose of 1×10^11 were added to a 96 well plate and incubated. After washing, the number of bound phages was detected (FIG. 13A). A 96 well-plate was coated with 1×10^10 particles of AAV vectors/well from serotypes 6, 8 and 9 overnight. After washing, 1×10^11 of PB5-3 phages were added and incubated at room temperature for 2 hrs. After washing, the phage particles were detected (FIG. 13B).
# To study the AAV9 virion binding affinity of the peptides isolated from phage, first we compared the affinity of the different peptides to AAV9 virions. After incubation of an AAV9-coated plate with different phages and several washings, much more PB5-3 phages were detected to bind to AAV9 than PB5-5 and PB5-14 phages (FIG. 13A). […] We coated the plate with AAV virions from different serotypes. After incubation with PB5-3 phages, the number of phages on the AAV9-coated plate was much higher than that with AAV6 and AAV8 (FIG. 13B).
# C57BL mice [8] = assay: Systemic administration of AAV6 and AAV8 pre-incubated with PB5-3, imaging; assay type: in vivo, mouse; conditions: pre-incubated with PB5-3, days 5 and 10
# Method: AAV/luc vectors from serotypes 6 or 8 at a dose of 5×10^10 or 1×10^10 particles, respectively, were incubated with PB5-3 for 2 hrs at 4° C. The complex was injected into C57BL mice via retro-orbital vein. At day 5 and 10 post AAV injection, mouse imaging was carried out. Representative imaging is shown from five mice.
# No effect of PB5-3 peptide on AAV brain transduction from other serotypes after systemic administration. To confirm the result in vitro that PB5-3 peptide could not efficiently bind to other AAV serotypes except for AAV9, we administered AAV6 and AAV8 vectors pre-incubated with PB5-3 in C57BL mice via retro-orbital injection. At days 5 and 10 post AAV application, mouse imaging was carried out.
# [9] = test system: human transferrin binding to AAV8 virions; assay: AAV8 competitive binding assay; conditions: pre-incubation with AAV8, then human transferrin; pull down with transferrin antibody, qPCR
# Method: AAV8 competitive binding assay. For THR competitive binding analysis, 10 ul of Protein G resin (Thermo, USA) per system was incubated with 1 ug of human transferrin antibody or goat IgG antibody control at 4° C. overnight. […] After that, the mixture was added to the complex of protein G resin and transferrin antibody and incubated at 4° C. overnight. Finally, the complex was stringently washed three times with cold DPBS. DNA from the complex was extracted and applied for qPCR to determine AAV genome copy number per cell using luc specific primers.
# To investigate whether THR also binds to the same location of AAV8 virions as human serum proteins, we performed a competitive assay. […] The transferrin antibody was used to pull down transferrin bound AAV8 virions and AAV8 gene copy number was measured by qPCR.
Substance,AAV8 brain transduction (luc expression and genome number) (C57BL/6 mice [1]),AAV genome copy number in the brain (C57BL/6 mice [2]),AAV8 transduction (luciferase) [3],transgene expression in the liver (imaging) (C57BL/6 mice [4]),further results
YQQILTSMPSRNVIQISNDLENLRDLLHVL [Leptin 30 (61-90)],increased AAV8 transduction in the brain,much higher,significantly enhanced AAV8 transduction,higher,–
GRKKRRQRRRPPQ [HIV-1 TAT (48-60)],no effect on brain transduction,–,significantly enhanced AAV8 transduction,higher,AAV8 liver transduction (C57BL/6 mice [1]): increased AAV8 liver transduction
QFAALPVRAHYG-NH2 [PB5-3],–,–,–,–,"AAV9 transduction in brain (imaging) (C57BL mice [5]; 1×10^10 particles AAV9/luc pre-incubated with PB5-3, retro-orbital vein): specifically enhanced AAV9 ability to cross the BBB and increase brain transduction; also recorded: high transduction in brain tissues; AAV genome copy number in the brain (C57BL mice [5]; complex of AAV9 and PB5-3, not in other tissues): higher; AAV9 transduction in the liver (C57BL mice [5]; with vs without PB5-3 pre-incubation): similar; transduction of AAV2, 6 or 8 (Huh7 or hCMEC/D3 cells): No enhanced transduction; also recorded: no enhancement; endothelial cell permeability of AAV9 [6]: significant increase in the endothelial cell permeability; also recorded: increases AAV9 permeability; toxicity (MTT assay) (different cell types): no toxicities; AAV9 transduction, PB5-3 incubated with AAV9 virions ([7]; 2 hrs at 4° C. pre-incubation, Huh7, Hela, C2C12 and hCMEC/D3): enhanced transduction; also recorded: specifically enhances AAV9 transduction in vitro; AAV9 transduction, PB5-3 without incubation ([7]; PB5-3 added to cells just before infection of AAV9): failed to increase AAV9 transduction; number of phages on AAV9-coated plate vs other serotypes (AAV9 virions; vs AAV6 and AAV8 coated plates): much higher; phages bound to AAV9-coated plate (AAV9 virions; vs PB5-5 and PB5-14 phages): much more; brain transduction from AAV6 and AAV8 (C57BL mice [8]): No brain transduction enhancement; also recorded: no effect"
TFFYGGSRGKRNNFKTEEY-OH [Angiopep-2],increased AAV8 transduction in the brain,much higher,–,higher,–
KKALLALALHHLAHLALALKKAC [LAH4],no effect on brain transduction,–,significantly enhanced AAV8 transduction,higher,AAV8 liver transduction (C57BL/6 mice [1]): increased AAV8 liver transduction
"FILMVWAPFI [PEPXT-1, control peptide, neutral polarity]",–,–,–,–,inhibition of transferrin binding to AAV8 [9]: no effect
(LRKLRKRLL)2 (LRKLRKRLLLRKLRKRLL) [ApoE (159-167)2],increased AAV8 transduction in the brain,much higher,–,higher,–

# Source: patent publication US12281335B2, “Methods and compositions for delivery of viral vectors across the blood-brain barrier” (priority 2017, dated 2025)
